{
  "source": "patent US20190225650A1",
  "about": "“PEPTIDOMIMETIC MACROCYCLES AND USE THEREOF IN REGULATING HIF1ALPHA” (AILERON THERAPEUTICS, INC., priority 2013, published 2019)",
  "note": "Bridge positions count the residues as written; N and C are the ends. Square brackets hold non-standard residues; d marks the D form. Peptide text beside a SMILES is read from it. R8 = C=CCCCCCC[C@@](C)(N)C(=O)O; S5 = C=CCCC[C@](C)(N)C(=O)O; Nle = CCCC[C@H](N)C(=O)O",
  "data": [
    {"molecular_target": "T1, flag-tagged HIF1α (AA 786-826) / His6-tagged p300 (AA 323-423) complex (Homo sapiens, UniProt Q09472)", "T1 construct": "His6-tagged p300 (AA 323-423); made in house; host or cells: E. coli (pETDuet vector)", "experiment": "HIF1α p300 displacement assay (TR FRET, +CHAPS)", "assay_type": "binding", "details": "read-out: IC50 (nM) (HIF1α_p300 Displacement + CHAPS)", "protocol": "The ability of peptides to displace HIF1α c-terminal trans-activation domain from p300-CH was measured by a TR FRET assay. A complex of flag-tagged HIF1α (AA 786-826) and His6-tagged p300 (AA 323-423) was co-expressed using pETDuet vector (EMDMillipore, Bellrica Mass.) and purified from E. coli in the presence of 0.1 mM ZnSO4. The complex was diluted to 300 nM final in complete assay media and competitor peptides were added. The complete assay media contained 150 mM NaCl (Sigma +S5150 or equivalent), 20 mM HEPES pH 7.4 (Boston Bioproducts, Ashland, Mass.; #BB-2076), 7.5 mM CHAPS (Thermo #28300 or equivalent), and 1 mM DTT. Protein and peptide were incubated at room temperature for 1 hour before the addition of anti-Flag-K and anti-6×HIS-D2 (CisBio, Bedford Mass.) HTRF reconstitution buffer (50 mM Phosphate pH 7, 0.8 Potassium Flouride, BSA 0.2%)^1 to a final concentration of 0.5 μM and 4 nM respectively. The reaction continued for an additional two hours at room temperature. The reaction was read on a TECAN F500 plate reader with settings recommended by CisBio. The ratio of donor to acceptor fluorescence was calculated. The resulting data was analyzed with Graphpad Prism 5.0. IC50 values were calculated for both proteins using the One Site Fit-LogIC50 equation and presented in the column “IC50 (nM) (HIF1α_p300 Displacement+CHAPS)” of Table 6. ^1 Cisbio USA, Bedford, Mass.; 61HISDLB (lot 007A), 61FG2KLB (024A), HTRF Buffer (62RB3RDF)", "units": {"IC50": "nM"}, "values": [
      {"smiles": "CSCC[C@@H]1NC(=O)[C@H](CC(C)C)NC(=O)[C@H](C(C)C)NC(=O)[C@](C)(NC(=O)[C@H](CCC(=O)O)NC(=O)[C@@H](NC(=O)[C@H](CC(C)C)NC(C)=O)[C@@H](C)O)CCCCCCC=CCCC[C@@](C)(C(=O)N[C@@H](CO)C(=O)N[C@@H](C)C(=O)N[C@@H](C)C(N)=O)NC(=O)[C@H](C(C)C)NC(=O)[C@H](CC(C)C)NC(=O)[C@H](CO)NC1=O", "note": "[SP-181] (Ac-LTE[R8]VLMSLV[S5]SAA-NH2; staple 4-11)", "IC50": "> 700"},
      {"smiles": "CSCC[C@H](NC(=O)[C@H](CO)NC(=O)[C@]1(C)CCCC=CCCCCCC[C@@](C)(NC(=O)[C@H](CCC(=O)O)NC(=O)[C@@H](NC(=O)[C@H](CC(C)C)NC(C)=O)[C@@H](C)O)C(=O)N[C@@H](C(C)C)C(=O)N[C@@H](CC(C)C)C(=O)N[C@@H](CCSC)C(=O)N[C@@H](CO)C(=O)N[C@@H](CC(C)C)C(=O)N[C@@H](C(C)C)C(=O)N1)C(=O)N[C@@H](C)C(N)=O", "note": "[SP-180] (Ac-LTE[R8]VLMSLV[S5]SMA-NH2; staple 4-11)", "IC50": "> 700"},
      {"smiles": "CC[C@H](C)[C@H](NC(=O)[C@H](Cc1ccccc1)NC(C)=O)C(=O)N[C@@H](CC(=O)O)C(=O)N[C@@H](CCC(=O)O)C(=O)N[C@]1(C)CCCCCCC=CCCC[C@@](C)(C(=O)N[C@@H](CCC(=O)O)C(=O)N[C@@H](CCSC)C(=O)NCC(=O)N[C@@H](CC(C)C)C(=O)N[C@@H](CC(=O)O)C(=O)N[C@@H](CCCNC(=N)N)C(N)=O)NC(=O)[C@H](C(C)C)NC(=O)[C@H](CC(C)C)NC(=O)[C@H](CO)NC(=O)[C@H](CCSC)NC(=O)[C@H](CC(C)C)NC(=O)[C@H](C(C)C)NC1=O", "note": "[SP-189] (Ac-FIDE[R8]VLMSLV[S5]EMGLDR-NH2; staple 5-12)", "IC50": "> 700"},
      {"smiles": "CCCC[C@H](NC(=O)[C@H](CCC(=O)O)NC(=O)[C@]1(C)CCCC=CCCCCCC[C@@](C)(NC(=O)[C@H](CCC(=O)O)NC(=O)[C@H](CC(=O)O)NC(=O)[C@@H](NC(=O)[C@H](Cc2ccccc2)NC(C)=O)[C@@H](C)CC)C(=O)N[C@@H](C(C)C)C(=O)N[C@@H](CC(C)C)C(=O)N[C@@H](CCSC)C(=O)N[C@@H](CO)C(=O)N[C@@H](CC(C)C)C(=O)N[C@@H](C(C)C)C(=O)N1)C(=O)NCC(N)=O", "note": "[SP-186] (Ac-FIDE[R8]VLMSLV[S5]E[Nle]G-NH2; staple 5-12)", "IC50": "> 700"},
      {"smiles": "CCCC[C@H](NC(=O)[C@H](CC(C)C)NC(=O)[C@@H](NC(=O)[C@H](C)NC(=O)[C@H](CCC(=O)O)NC(=O)[C@H](C)NC(=O)[C@@H](NC(=O)[C@H](Cc1ccccc1)NC(C)=O)[C@@H](C)CC)C(C)C)C(=O)N[C@@]1(C)CCCC=CCCC[C@@](C)(C(=O)N[C@@H](CCCC)C(=O)N[C@@H](C)C(=O)N[C@@H](CC(C)C)C(=O)N[C@@H](CC(=O)O)C(=O)N[C@@H](C)C(=O)N[C@H](C(N)=O)[C@@H](C)CC)NC(=O)[C@H]([C@@H](C)CC)NC(=O)[C@H](C(C)C)NC(=O)[C@H](CC(C)C)NC1=O", "note": "[SP-222] (Ac-FIAEAVL[Nle][S5]LVI[S5][Nle]ALDAI-NH2; staple 9-13)", "IC50": "200 to 400"},
      {"smiles": "CCCC[C@@H]1NC(=O)[C@H](CC(C)C)NC(=O)[C@H](C(C)C)NC(=O)[C@@](C)(NC(=O)[C@H](CCC(=O)O)NC(=O)[C@H](CC(=O)O)NC(=O)[C@@H](NC(=O)[C@H](Cc2ccccc2)NC(C)=O)[C@@H](C)CC)CCCC=CCCCC2(CCCC=CCCC[C@](C)(C(=O)N[C@@H](CCCC)C(=O)N[C@@H](C)C(=O)N[C@@H](CC(C)C)C(N)=O)NC(=O)[C@H]([C@@H](C)CC)NC(=O)[C@H](C(C)C)NC(=O)[C@H](CC(C)C)NC2=O)NC1=O", "note": "(stereo partly shown) [SP-204]", "IC50": "> 700"},
      {"smiles": "CCCC[C@H](NC(=O)[C@H](CCC(=O)O)NC(=O)[C@@H](NC(=O)[C@@H](NC(=O)[C@H](CC(C)C)NC(=O)[C@]1(C)CCCC=CCCC[C@](C)(NC(=O)[C@H](CCC(=O)O)NC(=O)[C@H](CC(=O)O)NC(=O)[C@@H](NC(=O)[C@H](Cc2ccccc2)NC(=O)[C@H](CCCCN)NC(=O)[C@H](CCCCN)NC(C)=O)[C@@H](C)CC)C(=O)N[C@@H](C(C)C)C(=O)N[C@@H](CC(C)C)C(=O)N[C@@H](CCCC)C(=O)N1)C(C)C)[C@@H](C)CC)C(=O)N[C@@H](C)C(=O)N[C@@H](CC(C)C)C(N)=O", "note": "[SP-135] (Ac-KKFIDE[S5]VL[Nle][S5]LVIE[Nle]AL-NH2; staple 7-11)", "IC50": "> 700"}
    ]}
  ]
}
